Assay: method code SF-HPLC, from DOI: 10.1002/qsar.200860138
Details: pH 3.0

Compound: O=C(O)Cn1ccc(C(=O)c2ccc(C(F)(F)F)cc2)c1
- logD: 2

Compound: Cc1ccc(C(=O)c2ccn(CC(=O)O)c2)cc1
- logD: 1.27

Compound: O=C(O)Cn1ccc(C(=O)c2ccc([N+](=O)[O-])cc2)c1
- logD: 0.93

Compound: COc1ccc(C(=O)c2cccn2CC(=O)O)cc1
- logD: 1.65

Compound: COc1ccc(C(=O)c2ccn(CC(=O)O)c2)cc1
- logD: 1.57

Compound: O=C(O)Cn1ccc(-c2nc3ccccc3s2)c1
- logD: 2.22

Compound: O=C(O)Cn1cc(C(=O)c2ccccc2)c2ccccc21
- logD: 2.57

Compound: O=C(O)Cc1ccc(C(=O)c2ccccc2)[nH]1
- logD: 1.87

Compound: COc1ccc(C(=O)c2cc(C(=O)c3ccc(OC)cc3)n(CC(=O)O)c2)cc1
- logD: 3.15

Compound: O=C(O)Cn1ccc(C(=O)c2ccc3ccccc3c2)c1
- logD: 2.27

Compound: O=C(O)Cn1cc(C(=O)c2ccccc2)cc1C(=O)c1ccccc1
- logD: 2.12

Compound: O=C(O)Cn1ccc(C(=O)c2ccc(Cl)cc2)c1
- logD: 1.95
